In brackets after ≈: the same amount, converted by molar mass. Read-outs that look alike come from different tables or passages of the source. Marks after values point to notes of the source that are not given here.
Legend:
[1] = tested on: Influenza A (H1N1) Texas/36/91; experiment: microbe, parasite or virus in culture; assay type: cell-based, influenza A virus; conditions: Influenza A virus, MDCK; Influenza A (H1N1) Texas/36/91; read-out: CPE Inhibition EC50
[2] = tested on: Influenza A (H1N1) Texas/36/91; experiment: microbe, parasite or virus in culture; assay type: cell-based, influenza A virus; conditions: Influenza A virus, MDCK; Influenza A (H1N1) Texas/36/91; read-out: Neutral Red EC50
[3] = tested on: Influenza A (H3N2) Beijing/32/92; experiment: microbe, parasite or virus in culture; assay type: cell-based, influenza A virus; conditions: Influenza A virus, MDCK; Influenza A (H3N2) Beijing/32/92; read-out: CPE Inhibition EC50
Measles Virus = experiment: Measles virus neutral red dye uptake in BSC-1 cells; assay type: cell-based; conditions: Measles morbillivirus, BSC-1
Adenovirus Type 5 = experiment: Adenovirus type 5 neutral red dye uptake in A549 cells; assay type: cell-based; conditions: Human mastadenovirus C, A549; Adenovirus Type 5; read-out: Neutral Red EC50
[4] = tested on: Respiratory Syncytial Virus; experiment: microbe, parasite or virus in culture; assay type: cell-based; conditions: human respiratory syncytial virus, MA104; read-out: CPE Inhibition EC50
[5] = tested on: Influenza A (A/NWS/33 (H1N1)); experiment: Influenza A virus infection in mice; assay type: in vivo, BALB/c mice
Protocol: Animals: Female 13-15 g specific pathogen-free BALB/c mice were obtained form Simonsen Laboratories (Gilroy, Calif.). They were quarantined 24 h prior to use, and maintained on Wayne Lab Blox and tap water. After being infected, their drinking water contained 0.006% oxytetracycline (Pfizer, New York, N.Y.) to control possible secondary bacterial infections.
Virus: A/NWS/33 (H1N1) was obtained from K. W. Cochran, Univ. of Michigan (Ann Arbor, Mich.). A virus pool was prepared in MDCK cells; this was titrated in mice, ampuled, and stored at −80° C. until used.
Compounds: Robustaflavone was stored at room temperature until used. Ribavirin, used as a positive control, was obtained from ICN Pharmaceuticals (Costa Mesa, Calif.). Vehicles considered included DMSO (Sigma Chemical Co., St. Louis, Mo.), DMF (Sigma), PEG M. W. 200 (Aldrich Chemical Co. Milwaukee, Wis.), 0.4% CMC (Sigma) and 1-methyl-2-pyrrolidinone (MPD, Aldrich).
Arterial Oxygen Saturation (SaO2) Determinations: SaO2 was determined using the Ohmeda Blox 3740 pulse oximeter (Ohmeda, Louisville, Ohio)). The ear probe attachment was used, the probe placed on the thigh of the animal, with the slow instrument mode selected. Readings were made after a 30 second stabilization time on each animal. Use of this device for measuring effects of influenza virus on arterial oxygen saturation have been described.^72
Lung Virus Determinations: Each mouse lung was homogenized and varying dilutions assayed in triplicate for infectious virus in MDCK cells as described previously.^73
4. Effect of robustaflavone in CMC or in DMSO on influenza virus infection in mice. In the study with CMC, robustaflavone was used in dosages of 200 and 100 mg/kg/day; using DMSO vehicle, the dosages were 75 and 37.5 mg/kg/day, with the compound administered i.p. twice daily for 5 days beginning 4 h pre-virus exposure. The mice were used in each dose to monitor effects on SaO2 and death; from an additional group of similarly infected and treated mice, 3 animals were killed on days 3, 5, 7 and 9 to assay for lung score (0=normal, 4=maximal consolidation), weight, and virus titer. Three to four mice were used as toxicity controls, which were weighed prior to treatment and again 18 h after treatment termination, and deaths noted daily. […] Three sets of virus controls were used: Infected-untreated, infected-treated with CMC only, and infected-treated with DMSO only. Twenty animals were used in each of these control groups to monitor SaO2 and death, with 3 additional mice taken in parallel with treated animals to determine effects on lung consolidation and virus titer. Two sets of normal controls were used; one group of three mice was weighed and held in parallel with the toxicity controls. From the second group three mice were killed on days 3 and 9 for comparison of lung score and weight.
Statistical Evaluation: Increase in survivor number was evaluated using chi square analysis with Yates' correction. Mean survival time increases, virus titer and SaO2 value differences were analyzed by t-test. Lung consolidation scores were evaluated by ranked sum analysis.

in vitro [6] = conditions: dog
in vitro [7] = conditions: dog, Neutral Red IC50 (cytotoxic)
in vitro [8] = conditions: African green monkey
in vitro [9] = conditions: African green monkey; remark: listed apart in the source
HCMV = HCMV CPE inhibition in HFF cells
[10] = robustaflavone in 0.4% CMC, 200 mg/kg/day i.p. bid × 5
[11] = robustaflavone in 0.4% CMC, 1005 mg/kg/day (so in the source) i.p. bid × 5
[12] = robustaflavone in DMSO, 37.5 mg/kg/day i.p. bid × 5
[13] = robustaflavone in DMSO, 75 mg/kg/day i.p. bid × 5

SMILES: O=c1cc(-c2ccc(O)c(-c3c(O)cc4oc(-c5ccc(O)cc5)cc(=O)c4c3O)c2)oc2cc(O)cc(O)c12 [Robustaflavone (3), robustaflavone]
- EC50 [1]: 1.9 mg/L (≈ 3.53 µM)
- EC50 [2]: 2 mg/L (≈ 3.71 µM)
- EC50 [3]: 1.9 mg/L (≈ 3.53 µM)
- EC50 (Measles Virus): < 30 mg/L
- EC50 (Adenovirus Type 5): > 100 mg/L
- EC50 [4]: > 100 mg/L
- Infected, Treated MST [5, 10]: 11.1 days
- Infected, Treated Mean SaO2 [5, 10]: 84.6%
- Infected, Treated Surv/Total [5, 10]: 0/9
- Infected, Treated MST [5, 11]: 9.8 days
- Infected, Treated Mean SaO2 [5, 11]: 85.1** %
- Infected, Treated Surv/Total [5, 11]: 0/10
- Infected, Treated MST [5, 12]: 8.0 days
- Infected, Treated Mean SaO2 [5, 12]: 73.8%
- Infected, Treated Surv/Total [5, 12]: 0/10
- Infected, Treated MST (mean survival time) [5, 13]: 3.2 days
- Infected, Treated Mean SaO2 (mean of days 3-10) [5, 13]: 70.6%
- Infected, Treated Surv/Total ([5]; robustaflavone in DMSO, 75 mg/kg/day i.p. bid × 5 beg −4 h pre-virus): 0/9
- IC50 (in vitro [6]; CPE Inhibition IC50 (50% cell inhibitory (cytotoxic) concentration), Influenza A (H1N1) test): 18 mg/L (≈ 33.4 µM)
- IC50 (in vitro [6]; CPE Inhibition IC50 (cytotoxic), Influenza A (H3N2) test): 32 mg/L (≈ 59.4 µM)
- IC50 (in vitro [6]; CPE Inhibition IC50 (cytotoxic), Influenza B test): ~100 mg/L (≈ 186 µM)
- IC50 (in vitro [7]; Influenza A (H1N1) test): ~32 mg/L (≈ 59.4 µM)
- IC50 (in vitro [7]; Influenza A (H3N2) test): ~100 mg/L (≈ 186 µM)
- IC50 (in vitro [7]; Influenza B test): 100 mg/L (≈ 186 µM)
- IC50 (in vitro [8]): < 14 mg/L
- IC50 (in vitro [9]; CPE Inhibition IC50 (cytotoxic), Respiratory Syncytial Virus test): 56 mg/L (≈ 104 µM)
- IC50 (in vitro [9]; CPI Inhibition IC50 (cytotoxic), Parainfluenza Type 3 Virus test): 56 mg/L (≈ 104 µM)
- HCMV SI (CC50/EC50) (HCMV; HFF Cells): >1.8
- EC50 (HCMV; Human betaherpesvirus 5, HFF, read-out: HCMV CPE Inhibition EC50): 54.8 mg/L (≈ 102 µM)
